Experimental data from patent US20040138316A1 (priority 2001, published 2004).

Legend:
mites = test system: mites
Experimental: (§1) Laboratory tests were carried out preliminarily both in a ventilated environment and a confined environment by means of treatments by contact or inhalation with 100% commercial n-Hexane, for the sake of brevity called hereinafter “Hexane” with reference to the performance of the practical experimental tests whose execution procedures follow.

insects = test system: insects
Experimental: as §1

[1] = test system: mites, larvae and adult forms of cheese fly
Experimental: Subsequent tests were conducted in a closed chamber consisting of a box (70 cm×50 cm by 120 cm high) with polypropylene walls as this material is among those not attacked by Hexane such as other synthetic plastic materials among which polyethylene, polyester, polyethylene terephthalates in addition to aluminum, copper, carbon steel and stainless steel. […] On the bottom of this box was located a circular aluminum tank (dia. 22 cm×height 15 cm) on the bottom of which was arranged a copper coil in which was circulated hot liquid to heat to evaporation the Hexane fed into the tank. The material to be tested was placed in the box which was then closed hermetically.
Tests were performed with two different techniques, to wit, at reduced pressure and at atmospheric pressure.
Both by the reduced pressure technique and the atmospheric pressure technique quantities of Hexane variable from 50 ml to 800 ml were fed through a second tap having in it a silicon tube drawing from the bottom of the aluminum tank. By circulating hot liquid in the heating coil the Hexane present in liquid phase in the tank was held at a temperature of 70° C. to 75° C. for the entire period of experimentation in order to achieve complete evaporation of the Hexane. A blower was placed on the bottom of the box for homogeneous distribution of the Hexane vapors in the treatment environment.
The temperature in the box during all the tests and as a function of the material to be treated (biological or not), was included in the range 5° C. to 75° C. The duration of the treatment was between 1 and 72 hours for both procedures (atmospheric pressure or reduced pressure). In the reduced-pressure tests the pressure was held in a range of 0.5N/cm2 to 5N/cm2.
At the end of treatment time the box was reopened and the Hexane vapors allowed to free themselves outward.
(§2) Arthropods were introduced both on nonbiological supports such as glass, printed paper, differently colored fabrics (cotton, silk, linen, skin, wool and synthetic) and on biological materials such as ham, hard wheat pasta and hard crust cheeses. […] Also treated was biological material infested by mites, larvae and adult forms of cheese fly and Galleria mellonella using the entire set of tests described above.

man = settings: cited from earlier work; for toxicity for man: prior art fumigants
[2] = treated products
Text: as §2

parasites = settings: prior art fumigants; cited from earlier work

## CCCCCC [Hexane, n-Hexane]
mites; Petri capsule, treatments of 15 minutes to two hours
  mites dead 15 minutes after treatment: all the mites present
mites; Petri capsule, verifiable after only a few minutes treatment
  toxic activity on arthropods by inhalation: strong toxic activity
mites; returned to optimal conditions 18-20 °C, 80% RH after treatment
  arthropods returned to life within 15 days: none of them returned to life
mites; treatment for longer periods of time
  toxic effect on eggs (hatching): strong hatching reduction
mites; ventilated environment
  toxic effect on mites by contact: weak, temporary toxic effect
insects; contact
  abatement power on flies, mosquitoes, cockroaches, corrodentia, thysanura: high abatement power
insects; ventilated environment
  toxic effect on insects by contact: significant toxic effect
[1]; Hexane vapors, closed chamber
  effect on mites and insects infesting cheese products, mattresses, cushions, sheets, carpet, drapes: same result
[1]; after 2 hours exposure to Hexane vapors, mites, larvae and adult forms of cheese fly
  effect on parasites infesting ham and dressed pork products: desired effect on nearly all parasites
[1]; after 48 hours of treatment
  reclamation of the product (ham, dressed pork products): complete reclamation
[1]; approximately 720 g per m3 of air, up to 72 hours, surrounding temperature, atmospheric pressure
  outcome of closed chamber tests compared with Petri capsule: confirmed the results obtained in Petri capsule
[1]; inhalation
  concentration at which parasiticidal treatment is already considerably effective: 250 g per cubic meter of air
man; contact
  toxicity index for man following contact: low toxicity index
man; inhalation
  acute toxicity index for man by inhalation: high acute toxicity index
[2]
  accumulation of toxic substances after treatment: no accumulation of toxic substances

## C1CO1 [Ethylene oxide]
man
  toxicity for man: highly toxic

## CBr [Methyl bromide]
man
  toxicity for man: very poisonous

## S=C=S [carbon sulfide]
parasites
  insecticidal / parasiticidal effectiveness: high insecticidal effectiveness
man
  toxicity for man: high toxicity

## ClC(Cl)(Cl)Cl [Carbon tetrachloride]
parasites
  insecticidal / parasiticidal effectiveness: slight parasiticidal power
man
  toxicity for man: less toxic than carbon sulfide
